Data: patent US6379659B1, “Keratin fiber strengthening agent and method for strengthening keratin fiber” (Takasago International Corporation, priority 1997, dated 2002)

Legend:
[1] = Breaking strength test, elongation and toughness of solvent-damaged human hair (Example 38)
Experimental: Samples (Samples 16 to 19) were prepared as described below and breaking strength test and measurement of elongation were carried out under the below-described measuring conditions by using Shimadzu Autograph AGS0599B (manufactured by Simadzu Corp). Based on the results, toughness (breaking strength×elongation) of each of Samples 16 to 19 was calculated.
Relative humidity: 40%, temperature: 25° C.
Hair employed for the test: A hair having a length of about 15 cm and a diameter of about 0.08 to 0.1 mm, clamped 5.0 cm from each end.
(§1) Pulling speed: 5.0 cm/min
(b) Preparation of Samples (Samples 16 to 19)
(§2) Healthy hair, cut off from a person at a beauty parlor, which had not been permed nor bleached, was used.
The healthy hair (untreated hair, Sample 16) weighing 50 g was soaked in 450 ml of a 2:1 mixture of chloroform and ethanol and subjected to ultrasonication for 15 minutes to remove lipid components. The sample was then washed with 250 ml of a 2:1 mixture of chloroform and ethanol and then with 100 ml of acetone, followed by drying under reduced pressure, whereby organic-solvent-treated hair (Sample 17) was obtained.
The solvent-treated hair (Sample 17) weighing 40 g was soaked in a 5-fold weight of each of the treating agents and subjected to ultrasonication for 15 minutes. The hair was then washed five times with 1000 ml of water, followed by drying at 60° C. for 2 hours under reduced pressure and then drying for 3 hours under reduced pressure, whereby each of Samples 18 to 19 were obtained. Described specifically, Sample 18 was the hair treated with the treating agent (placebo treating agent), which had been prepared in Comparative Example 3, subsequent to the treatment with a solvent, while Sample 19 was the hair treated with the keratin fiber strengthening agent of the present invention (Compound-6-containing treating agent) which had been prepared in […].
The differences of the samples are summarized as follows.
Sample 16: Healthy hair (untreated)
Sample 17: Hair treated with the solvent
Sample 18: Hair treated with the solvent and then with the placebo treating agent prepared in Comparative Example
Sample 19: Hair treated with the solvent and then with the keratin fiber strengthening agent of the present invention (Compound-6-containing treating agent) prepared in Example 31

[2] = Breaking strength test on solvent-damaged human hair (Example 31); conditions: damaged (chloroform/ethanol-treated) hair of person soaked in treating agent; 25° C., 40% RH; average n = 10
Experimental: Hair samples 1 to 5 were prepared and subjected to a destructive test under the following conditions by the use of Shimadzu Autograph AGS-500B (manufactured by Shimadzu Corp.) to measure a breaking strength.
Hair: A hair having a length of about 15 cm and a diameter of about 0.08 to 0.1 mm, clamped 5.7 cm from each end.
as §1
(§3) Atmosphere: 25° C., 40% RH
as §2
The healthy hair (untreated hair, sample 1) weighing 50 g was soaked in 450 ml of a 2:1 (by volume) mixture of chloroform and ethanol and subjected to ultrasonication for 15 minutes to remove lipids. The sample was washed with 250 ml of a 2:1 (by volume) mixture of chloroform and ethanol and then with 100 ml of acetone and dried to prepare solvent-treated hair as damaged hair (sample 2).
The solvent-treated hair weighing 40 g was soaked in a 5-fold weight of each of the blank treating agent of Comparative Example 1, the racemate-containing treating agent of Comparative Example 2, and the keratin fiber strengthening agent of Example 1 and subjected to ultrasonication for 15 minutes, followed by washing with five 1000 ml portions of water. The treated hair was dried under reduced pressure at 60° C. 2 hours and then under reduced pressure for 3 hours to prepare samples 3 to 5, respectively.

[3] = Young's modulus, breaking strength, elongation and toughness of solvent-damaged human hair (Examples 33, 35); conditions: damaged hair of person soaked in treating agent; n=10
Experimental: as §2
Healthy hair (untreated hair, sample 6) was treated with a chloroform-ethanol mixed solvent in the same manner as in Example 31 to prepare sample 7. Samples 8 to 10 were prepared in the same manner as for samples 3 to 5 of Example 31. The breaking strength of each sample was measured by means of Shimadzu Autograph. A Young's modulus was also measured.

[4] = Breaking strength test on dog hair (Example 36)
Experimental: Dog hair samples 11 to 15 were prepared as follows and subjected to a destructive test under the following conditions by the use of Shimadzu Autograph AGS-SOOB (manufactured by Shimadzu Corp.) to measure a breaking strength and a Young's modulus. The breaking strength and Young's modulus data obtained are also graphically represented in FIGS. 4 and 5, respectively.
Dog Hair: A dog hair having a length of about 10 to 15 cm and a diameter of about 0.08 to 0.1 mm, clamped 2 cm from each end.
as §1, §3
Healthy dog hairs collected from around the neck of a 4-year-old male Shetland sheepdog were used. The untreated hair as collected (sample 11) weighing 50 g was treated in the same manner as in Example 31 to prepare samples 12 to 15.

[5] = solvent-treated hair of person soaked in treating agent, mean n=10
[6] = damaged dog hair soaked in treating agent, n = 10

Row | SMILES | Breaking strength of hair as compared with the placebo treating agent, in words ([1]; P<0.05 vs Sample 18) | Breaking Strength [1, 5] | Elongation [1, 5] | Toughness (breaking strength×elongation) [1, 5] | Breaking Strength [2] | Breaking Strength [3] | Elongation [3] | Toughness (product of breaking strength and elongation) [3] | Breaking Strength per area ([4]; damaged dog hair soaked in treating agent) | Breaking Strength [4, 6] | Young's Modulus [4, 6] | Improvements on breaking strength and Young's modulus, in words ([4]; not only human hair but dog hair)
1 | CCCCCCCCCCCCCCC[C@@H](O)[C@H](CO)NC(=O)C(O)CCCCCCCCCCCCCC (stereo partly drawn) [Compound 6, (2S,3R)-2-(2-hydroxyhexadecanoyl)aminooctadecane-1,3-diol] | significantly increases | 0.266 Kgf | 26.02 mm | 6.921 kgf·mm | – | – | – | – | – | – | – | –
2 | CCCCCCCCCCCCCCCCCC(=O)N[C@@H](CO)[C@H](O)CCCCCCCCCCCCCCC [Compound 1, (2S,3R)-2-octadecanoylaminooctadecane-1,3-diol] | – | – | – | – | 0.2058 kgf | 0.2941 kgf | 27.08 mm | 7.9642 kgf × mm | 42.55 kgf/mm^2 | 0.1196 kgf | 605.240 kgf/mm^2 | significant improvements
